# Results published in BindingDB's records for PubMed 3012067 (Johns Hopkins University, 1986).
# Several values for one entry are separate records, joined by “and”; a condition that tells them apart may be missing. Equal values may be shown once.
# Molecular target: Voltage-dependent L-type calcium channel subunit alpha-1C (Rattus norvegicus, UniProt P22002)
# Sequence (P22002 whole entry): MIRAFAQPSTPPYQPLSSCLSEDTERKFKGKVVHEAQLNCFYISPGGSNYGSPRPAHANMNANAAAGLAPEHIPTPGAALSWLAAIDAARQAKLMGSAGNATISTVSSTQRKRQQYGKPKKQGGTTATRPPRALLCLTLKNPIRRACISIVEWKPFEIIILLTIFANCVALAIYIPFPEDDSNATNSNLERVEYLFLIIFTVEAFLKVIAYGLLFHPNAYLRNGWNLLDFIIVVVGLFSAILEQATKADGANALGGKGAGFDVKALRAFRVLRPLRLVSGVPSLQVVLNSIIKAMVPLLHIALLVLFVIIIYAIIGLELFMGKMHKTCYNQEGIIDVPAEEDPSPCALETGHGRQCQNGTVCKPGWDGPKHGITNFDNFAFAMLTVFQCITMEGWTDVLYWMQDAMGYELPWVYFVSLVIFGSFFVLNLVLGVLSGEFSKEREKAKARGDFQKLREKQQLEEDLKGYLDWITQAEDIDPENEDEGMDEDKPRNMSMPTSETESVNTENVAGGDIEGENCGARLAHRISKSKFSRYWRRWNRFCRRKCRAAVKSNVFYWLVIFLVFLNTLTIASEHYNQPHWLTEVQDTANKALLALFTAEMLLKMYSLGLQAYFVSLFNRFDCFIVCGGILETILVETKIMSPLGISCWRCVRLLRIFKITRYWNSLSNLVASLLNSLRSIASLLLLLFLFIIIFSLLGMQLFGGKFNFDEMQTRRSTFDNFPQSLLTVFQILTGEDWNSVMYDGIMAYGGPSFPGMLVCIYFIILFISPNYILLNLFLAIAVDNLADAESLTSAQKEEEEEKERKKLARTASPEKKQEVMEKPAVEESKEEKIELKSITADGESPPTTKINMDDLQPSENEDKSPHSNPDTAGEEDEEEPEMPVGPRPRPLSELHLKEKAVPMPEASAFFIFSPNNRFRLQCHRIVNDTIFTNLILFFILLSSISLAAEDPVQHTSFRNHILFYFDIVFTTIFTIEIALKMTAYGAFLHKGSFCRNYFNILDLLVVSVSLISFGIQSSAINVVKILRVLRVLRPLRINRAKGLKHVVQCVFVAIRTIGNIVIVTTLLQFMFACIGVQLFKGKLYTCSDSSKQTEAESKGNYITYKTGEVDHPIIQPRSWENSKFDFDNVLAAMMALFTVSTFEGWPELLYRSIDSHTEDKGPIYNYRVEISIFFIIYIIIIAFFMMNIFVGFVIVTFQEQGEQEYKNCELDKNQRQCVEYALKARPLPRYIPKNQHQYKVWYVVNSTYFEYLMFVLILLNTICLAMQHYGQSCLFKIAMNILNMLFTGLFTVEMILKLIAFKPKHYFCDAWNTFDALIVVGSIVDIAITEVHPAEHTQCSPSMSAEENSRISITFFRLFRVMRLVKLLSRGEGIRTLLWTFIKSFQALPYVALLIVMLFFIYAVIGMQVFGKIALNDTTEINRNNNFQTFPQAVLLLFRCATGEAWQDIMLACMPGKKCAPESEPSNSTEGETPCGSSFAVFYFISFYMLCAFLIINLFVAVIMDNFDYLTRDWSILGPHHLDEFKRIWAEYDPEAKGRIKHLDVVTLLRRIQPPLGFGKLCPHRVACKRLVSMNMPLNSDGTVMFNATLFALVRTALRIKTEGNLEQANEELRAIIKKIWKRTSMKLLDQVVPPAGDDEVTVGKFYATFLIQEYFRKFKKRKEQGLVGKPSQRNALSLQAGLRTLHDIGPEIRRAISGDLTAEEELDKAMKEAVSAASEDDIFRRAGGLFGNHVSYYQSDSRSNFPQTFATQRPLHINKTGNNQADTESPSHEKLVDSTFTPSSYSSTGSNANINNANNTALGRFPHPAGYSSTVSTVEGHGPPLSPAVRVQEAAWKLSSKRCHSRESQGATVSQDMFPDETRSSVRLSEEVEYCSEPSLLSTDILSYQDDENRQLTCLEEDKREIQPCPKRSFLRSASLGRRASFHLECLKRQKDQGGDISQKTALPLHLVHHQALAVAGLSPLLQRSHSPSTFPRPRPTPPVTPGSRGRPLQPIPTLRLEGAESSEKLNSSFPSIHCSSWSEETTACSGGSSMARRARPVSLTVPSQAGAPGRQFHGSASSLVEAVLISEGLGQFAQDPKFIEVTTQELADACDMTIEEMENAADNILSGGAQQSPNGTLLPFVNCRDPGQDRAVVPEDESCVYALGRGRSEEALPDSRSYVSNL
row,Structure (SMILES),Ki
1,COc1ccc(CCN(C)CCCC2(c3ccc(OC)c(OC)c3)S(=O)(=O)CCCS2(=O)=O)cc1OC,1440 nM and 416 nM
2,COc1ccc(CCN(C)CCCC(C#N)(c2cc(OC)c(OC)c(OC)c2)C(C)C)cc1OC (centres undefined) [GALLOPAMIL],21.4 nM and 22.5 nM
3,CN(C)C(=O)C(CCN1CCC(O)(c2ccc(Cl)cc2)CC1)(c1ccccc1)c1ccccc1,205 nM and 127 nM
4,CC(C)COC[C@H](CN(Cc1ccccc1)c1ccccc1)N1CCCC1,547 nM and 241 nM
5,CCOP(=O)(Cc1ccc(-c2nc3ccccc3s2)cc1)OCC [NSC_53421],1690 nM and 442 nM
6,COC(=O)C1=C(C)N=C(C)C([N+](=O)[O-])C1c1ccccc1C(F)(F)F (centres undefined) [Bay k 8644],1110 nM
7,CC(Cc1ccccc1)NCCC(c1ccccc1)c1ccccc1 (centres undefined),384 nM and 320 nM
8,Cc1cccc(C)c1NC(=O)CN1CCN(CCCC(c2ccc(F)cc2)c2ccc(F)cc2)CC1,305 nM and 188 nM
9,CCOC(=O)C1=C(C)N=C(C)C(C(=O)OCC)C1c1ccccc1C(F)(F)F (centres undefined) [NSC_168089],268 nM
